Measurements from paper PMC10648852, “Molecular drivers of resistance to sulbactam-durlobactam in contemporary clinical isolates of Acinetobacter baumannii” (Antimicrobial Agents and Chemotherapy, 2023).
Where two headings read alike, the source gives them in different places.

How the values were obtained:
[1] = system: A. pittii clinical isolates; test: microbe, parasite or virus in culture; assay type: cell-based; settings: Acinetobacter pittii
Method in brief: (§1)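 SUL-DUR combines serially twofold-diluted sulbactam with durlobactam held at 4 µg/mL; MICs obtained by CLSI-standard broth microdilution and read against CLSI breakpoints when these exist.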

[2] = system: A. nosocomialis clinical isolate; test: microbe, parasite or virus in culture; assay type: cell-based; settings: Acinetobacter nosocomialis, isolate ARC7023 (IHMA 2118812), France, BSI, 2019, read-out: MIC
Method in brief: as §1

[3] = system: A. baumannii clinical isolates; test: microbe, parasite or virus in culture; assay type: cell-based; settings: Acinetobacter baumannii
Method in brief: as §1

[4] = system: ABC clinical isolates with SUL-DUR MIC > 4 µg/mL; test: microbe, parasite or virus in culture; assay type: cell-based, Acinetobacter baumannii-calcoaceticus complex
Method in brief: as §1

[5] = system: A. baumannii wild-type PBP3; test: Acylation rate constant (kinact/Ki), fluorescence anisotropy competition with BOCILLIN; settings: Wildtype PBP3

## C[C@@H](O)[C@H]1C(=O)N2C(C(=O)O)=C(SCCN=CN)C[C@H]12 [imipenem]
[1]; isolate ARC6949 (IHMA 1898982), Romania, RTI, 2018, read-out: MIC
  MIC: > 64 µg/mL
[1]; isolate ARC6951 (IHMA 1776233), Philippines, RTI, 2018, read-out: MIC
  MIC: > 64 µg/mL
[1]; isolate ARC6952 (IHMA 1899008), Romania, RTI, 2018, read-out: MIC
  MIC: > 64 µg/mL
[1]; isolate ARC7087 (IHMA 2212062), Colombia, BSI, 2020, read-out: MIC
  MIC: 64 µg/mL
[2]
  MIC: 64 µg/mL
[3]; isolate ARC6644 (IHMA 1420327), Mexico, UTI, 2016, read-out: MIC
  MIC: 16 µg/mL
[3]; isolate ARC6645 (IHMA 1435703), France, UTI, 2016, read-out: MIC
  MIC: > 64 µg/mL
[3]; isolate ARC6646 (IHMA 1484127), United States, RTI, 2016, read-out: MIC
  MIC: 64 µg/mL
[3]; isolate ARC6647 (IHMA 1386786), Argentina, RTI, 2016, read-out: MIC
  MIC: > 64 µg/mL
[3]; isolate ARC6648 (IHMA 1407634), Spain, RTI, 2016, read-out: MIC
  MIC: > 64 µg/mL
[3]; isolate ARC6650 (IHMA 1457337), Argentina, RTI, 2016, read-out: MIC
  MIC: 32 µg/mL
[3]; isolate ARC6652 (IHMA 1465642), Belgium, RTI, 2016, read-out: MIC
  MIC: 64 µg/mL
[3]; isolate ARC6653 (IHMA 1308777), Vietnam, RTI, 2016, read-out: MIC
  MIC: 64 µg/mL
[3]; isolate ARC6799 (IHMA 1562935), Spain, UTI, 2017, read-out: MIC
  MIC: 64 µg/mL
[3]; isolate ARC6800 (IHMA 1557526), Turkey, RTI, 2017, read-out: MIC
  MIC: 64 µg/mL
[3]; isolate ARC6801 (IHMA 1662094), Thailand, RTI, 2017, read-out: MIC
  MIC: > 64 µg/mL
[3]; isolate ARC6802 (IHMA 1557073), Spain, UTI, 2017, read-out: MIC
  MIC: 64 µg/mL
[3]; isolate ARC6803 (IHMA 1589408), Belgium, UTI, 2017, read-out: MIC
  MIC: 64 µg/mL
[3]; isolate ARC6805 (IHMA 1558650), United States, RTI, 2017, read-out: MIC
  MIC: 32 µg/mL
[3]; isolate ARC6808 (IHMA 1557168), Spain, RTI, 2017, read-out: MIC
  MIC: 64 µg/mL
[3]; isolate ARC6809 (IHMA 1699528), Guatemala, RTI, 2017, read-out: MIC
  MIC: > 64 µg/mL
[3]; isolate ARC6810 (IHMA 1699548), Guatemala, RTI, 2017, read-out: MIC
  MIC: > 64 µg/mL
[3]; isolate ARC6812 (IHMA 1699530), Guatemala, RTI, 2017, read-out: MIC
  MIC: 64 µg/mL
[3]; isolate ARC6813 (IHMA 1699543), Guatemala, UTI, 2017, read-out: MIC
  MIC: > 64 µg/mL
[3]; isolate ARC6814 (IHMA 1699512), Guatemala, RTI, 2017, read-out: MIC
  MIC: > 64 µg/mL
[3]; isolate ARC6815 (IHMA 1699513), Guatemala, RTI, 2017, read-out: MIC
  MIC: > 64 µg/mL
[3]; isolate ARC6816 (IHMA 1699521), Guatemala, RTI, 2017, read-out: MIC
  MIC: > 64 µg/mL
[3]; isolate ARC6817 (IHMA 1699523), Guatemala, RTI, 2017, read-out: MIC
  MIC: > 64 µg/mL
[3]; isolate ARC6818 (IHMA 1683261), Thailand, RTI, 2017, read-out: MIC
  MIC: > 64 µg/mL
[3]; isolate ARC6819 (IHMA 1683267), Thailand, RTI, 2017, read-out: MIC
  MIC: > 64 µg/mL
[3]; isolate ARC6820 (IHMA 1647876), Argentina, RTI, 2017, read-out: MIC
  MIC: 64 µg/mL
[3]; isolate ARC6821 (IHMA 1699517), Guatemala, RTI, 2017, read-out: MIC
  MIC: > 64 µg/mL
[3]; isolate ARC6822 (IHMA 1637626), Guatemala, RTI, 2017, read-out: MIC
  MIC: 64 µg/mL
[3]; isolate ARC6823 (IHMA 1620872), Greece, SSSI, 2017, read-out: MIC
  MIC: 64 µg/mL
[3]; isolate ARC6824 (IHMA 1625487), Argentina, BSI, 2017, read-out: MIC
  MIC: 64 µg/mL
[3]; isolate ARC6937 (IHMA 1562926), Spain, UTI, 2017, read-out: MIC
  MIC: 64 µg/mL
[3]; isolate ARC6950 (IHMA 1820064), Israel, RTI, 2018, read-out: MIC
  MIC: > 64 µg/mL
[3]; isolate ARC6953 (IHMA 1909827), Turkey, IAI, 2018, read-out: MIC
  MIC: 64 µg/mL
[3]; isolate ARC6954 (IHMA 1838192), Guatemala, SSSI, 2018, read-out: MIC
  MIC: > 64 µg/mL
[3]; isolate ARC6955 (IHMA 1825425), United States, RTI, 2018, read-out: MIC
  MIC: 64 µg/mL
[3]; isolate ARC7008 (IHMA 2009813), Thailand, BSI, 2019, read-out: MIC
  MIC: > 64 µg/mL
[3]; isolate ARC7009 (IHMA 2043611), United States, UTI, 2019, read-out: MIC
  MIC: > 64 µg/mL
[3]; isolate ARC7010 (IHMA 2043398), United States, RTI, 2019, read-out: MIC
  MIC: > 64 µg/mL
[3]; isolate ARC7011 (IHMA 2104553), Germany, RTI, 2019, read-out: MIC
  MIC: > 64 µg/mL
[3]; isolate ARC7012 (IHMA 2010001), Thailand, RTI, 2019, read-out: MIC
  MIC: > 64 µg/mL
[3]; isolate ARC7013 (IHMA 1962831), Argentina, RTI, 2019, read-out: MIC
  MIC: > 64 µg/mL
[3]; isolate ARC7014 (IHMA 2045328), Guatemala, IAI, 2019, read-out: MIC
  MIC: 64 µg/mL
[3]; isolate ARC7015 (IHMA 2045327), Guatemala, UTI, 2019, read-out: MIC
  MIC: 64 µg/mL
[3]; isolate ARC7016 (IHMA 2148441), Brazil, BSI, 2019, read-out: MIC
  MIC: > 64 µg/mL
[3]; isolate ARC7017 (IHMA 2148446), Brazil, BSI, 2019, read-out: MIC
  MIC: > 64 µg/mL
[3]; isolate ARC7018 (IHMA 2045454), Guatemala, IAI, 2019, read-out: MIC
  MIC: > 64 µg/mL
[3]; isolate ARC7019 (IHMA 2114463), Thailand, RTI, 2019, read-out: MIC
  MIC: > 64 µg/mL
[3]; isolate ARC7020 (IHMA 2045326), Guatemala, RTI, 2019, read-out: MIC
  MIC: 64 µg/mL
[3]; isolate ARC7021 (IHMA 1966347), Guatemala, RTI, 2019, read-out: MIC
  MIC: 64 µg/mL
[3]; isolate ARC7022 (IHMA 2045319), Guatemala, IAI, 2019, read-out: MIC
  MIC: 64 µg/mL
[3]; isolate ARC7024 (IHMA 2059448), Turkey, RTI, 2019, read-out: MIC
  MIC: 64 µg/mL
[3]; isolate ARC7025 (IHMA 2002121), Spain, RTI, 2019, read-out: MIC
  MIC: 64 µg/mL
[3]; isolate ARC7026 (IHMA 2104494), Guatemala, BSI, 2019, read-out: MIC
  MIC: > 64 µg/mL
[3]; isolate ARC7082 (IHMA 2160640), Belgium, BSI, 2020, read-out: MIC
  MIC: > 64 µg/mL
[3]; isolate ARC7083 (IHMA 2163687), United States, RTI, 2020, read-out: MIC
  MIC: 64 µg/mL
[3]; isolate ARC7084 (IHMA 2189596), Germany, RTI, 2020, read-out: MIC
  MIC: > 64 µg/mL
[3]; isolate ARC7085 (IHMA 2205747), Guatemala, IAI, 2020, read-out: MIC
  MIC: > 64 µg/mL
[3]; isolate ARC7086 (IHMA 2207563), Israel, RTI, 2020, read-out: MIC
  MIC: > 64 µg/mL
[3]; isolate ARC7088 (IHMA 2215554), Turkey, BSI, 2020, read-out: MIC
  MIC: > 64 µg/mL
[3]; isolate ARC7089 (IHMA 2240345), Argentina, BSI, 2020, read-out: MIC
  MIC: 64 µg/mL
[3]; isolate ARC7090 (IHMA 2244410), Poland, RTI, 2020, read-out: MIC
  MIC: > 64 µg/mL
[3]; isolate ARC7091 (IHMA 2244564), Australia, RTI, 2020, read-out: MIC
  MIC: > 64 µg/mL
[3]; isolate ARC7092 (IHMA 2258772), United States, BSI, 2020, read-out: MIC
  MIC: > 64 µg/mL
[3]; isolate ARC7093 (IHMA 2258783), United States, RTI, 2020, read-out: MIC
  MIC: > 64 µg/mL
[3]; isolate ARC7094 (IHMA 2296423), Turkey, RTI, 2020, read-out: MIC
  MIC: 64 µg/mL
[3]; isolate ARC7095 (IHMA 2320843), Turkey, BSI, 2020, read-out: MIC
  MIC: 64 µg/mL
[3]; isolate ARC7156 (IHMA 2455450), Greece, RTI, 2021, read-out: MIC
  MIC: > 64 µg/mL
[3]; isolate ARC7158 (IHMA 2523738), Italy, BSI, 2021, read-out: MIC
  MIC: > 64 µg/mL
[3]; isolate ARC7159 (IHMA 2456229), Malaysia, RTI, 2021, read-out: MIC
  MIC: > 64 µg/mL
[3]; isolate ARC7160 (IHMA 2458626), Thailand, RTI, 2021, read-out: MIC
  MIC: > 64 µg/mL
[3]; isolate ARC7161 (IHMA 2429252), Ukraine, RTI, 2021, read-out: MIC
  MIC: > 64 µg/mL
[3]; isolate ARC7162 (IHMA 2411847), United States, BSI, 2021, read-out: MIC
  MIC: > 64 µg/mL
[3]; isolate ARC7163 (IHMA 2477704), United States, BSI, 2021, read-out: MIC
  MIC: > 64 µg/mL
[4]; 64 non-clonal ABC isolates, 2023 CLSI breakpoints plus FDA breakpoint of 4 µg/mL for SUL-DUR
  %NS (% non-susceptibility): 100%
[4]; Acinetobacter
  MIC50: > 64 µg/mL
  MIC90: > 64 µg/mL
[4]; Acinetobacter, read-out: MIC Max
  MIC: > 64 µg/mL
[4]; Acinetobacter, read-out: MIC Min
  MIC: 16 µg/mL
[5]
  % WT: 100%
[5]; average ± SD
  k inact/K i: 450 ± 60 ([10]) M^-1s^-1
